# Results published in patent US20260262643A1, “HERBICIDAL BENZOXAZINES” (FMC CORPORATION, priority 2022, published 2026).
# Experiments:
# barnyardgrass [1] = assay: Test D flooded paddy test; format: in vivo, Echinochloa crus-galli; settings: 250 g ai/ha, applied to paddy water, visual rating after 13 to 14 days, scale 0 to 100 (0 no effect, 100 complete control)
# Procedure, shortened: (§1)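 2-leaf plants; flood 3 cm above soil; compound dosed into paddy water; greenhouse 13–14 d; visual rating vs controls, 0–100 (100 = complete control); dash = not tested.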
# ryegrass, Italian [2] = assay: Test C preemergence; format: in vivo, Lolium multiflorum; settings: 0 to 100 scale (0 no effect, 100 complete control); for Plant response rating, Ryegrass, Italian: Preemergence, 500 g ai/ha, visual rating after 10 days; for Ryegrass, Italian plant response rating: Test C, preemergence, 125 g ai/ha
# Procedure, shortened: (§2)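 Seeds sown in loam soil–sand blend received a directed preemergence soil spray of test chemical in non-phytotoxic solvent with surfactant; postemergence plants (2–10 cm, one- to two-leaf stage) were sprayed with the same formulation. Greenhouse-held 10 days, then visually rated for injury versus untreated controls, 0 (no effect) to 100 (complete control).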
# wheat [3] = assay: Test C postemergence; format: in vivo, Triticum aestivum; settings: 10 days
# Procedure, shortened: as §2
# green foxtail [4] = assay: Test C postemergence; format: in vivo, Setaria viridis; settings: 10 days
# Procedure, shortened: as §2
# blackgrass [5] = assay: Test C preemergence; format: in vivo, Alopecurus myosuroides; settings: 0 to 100 scale (0 no effect, 100 complete control); for Plant response rating, Blackgrass: Preemergence, 500 g ai/ha, visual rating after 10 days; for Blackgrass plant response rating: Test C, preemergence, 125 g ai/ha
# Procedure, shortened: as §2
# barnyardgrass [6] = assay: Test C preemergence; format: in vivo, Echinochloa crusgalli; settings: 0 to 100 scale (0 no effect, 100 complete control); for Plant response rating, Barnyardgrass: Preemergence, 500 g ai/ha, visual rating after 10 days; for Barnyardgrass plant response rating: Test C, preemergence, 125 g ai/ha
# Procedure, shortened: as §2
# corn [7] = assay: Test C preemergence; format: in vivo, Zea mays; settings: 0 to 100 scale (0 no effect, 100 complete control); for Plant response rating, Corn: Preemergence, 500 g ai/ha, visual rating after 10 days; for Corn plant response rating: Test C, preemergence, 125 g ai/ha
# Procedure, shortened: as §2
# sedge, umbrella = assay: Test D flooded paddy test; format: in vivo, Cyperus difformis; settings: 250 g ai/ha, applied to paddy water, visual rating after 13 to 14 days, scale 0 to 100 (0 no effect, 100 complete control)
# Procedure, shortened: as §1
# barnyardgrass [8] = assay: Test C postemergence; format: in vivo, Echinochloa crusgalli; settings: 10 days
# Procedure, shortened: as §2
# rice = assay: Test D flooded paddy test; format: in vivo, Oryza sativa; settings: 250 g ai/ha, applied to paddy water, visual rating after 13 to 14 days, scale 0 to 100 (0 no effect, 100 complete control)
# Procedure, shortened: as §1
# pigweed, palmer [9] = assay: Test C postemergence; format: in vivo, Amaranthus palmeri; settings: 10 days
# Procedure, shortened: as §2
# kochia [10] = assay: Test C postemergence; format: in vivo, Bassia scoparia; settings: 10 days
# Procedure, shortened: as §2
# ryegrass, Italian [11] = assay: Test C postemergence; format: in vivo, Lolium multiflorum; settings: 10 days
# Procedure, shortened: as §2
# soybean [12] = assay: Test C preemergence; format: in vivo, Glycine max; settings: 0 to 100 scale (0 no effect, 100 complete control); for Plant response rating, Soybean: Preemergence, 500 g ai/ha, visual rating after 10 days; for Soybean plant response rating: Test C, preemergence, 125 g ai/ha
# Procedure, shortened: as §2
# ducksalad = assay: Test D flooded paddy test; format: in vivo, Heteranthera limosa; settings: 250 g ai/ha, applied to paddy water, visual rating after 13 to 14 days, scale 0 to 100 (0 no effect, 100 complete control)
# Procedure, shortened: as §1
# pigweed, palmer [13] = assay: Test C preemergence; format: in vivo, Amaranthus palmeri; settings: 0 to 100 scale (0 no effect, 100 complete control); for Plant response rating, Pigweed, Palmer: Preemergence, 500 g ai/ha, visual rating after 10 days; for Pigweed, Palmer plant response rating: Test C, preemergence, 125 g ai/ha
# Procedure, shortened: as §2
# soybean [14] = assay: Test C postemergence; format: in vivo, Glycine max; settings: 10 days
# Procedure, shortened: as §2
# corn [15] = assay: Test C postemergence; format: in vivo, Zea mays; settings: 10 days
# Procedure, shortened: as §2
# oat, wild [16] = assay: Test C preemergence; format: in vivo, Avena fatua; settings: 0 to 100 scale (0 no effect, 100 complete control); for Plant response rating, Oat, Wild: Preemergence, 500 g ai/ha, visual rating after 10 days; for Oat, Wild plant response rating: Test C, preemergence, 125 g ai/ha
# Procedure, shortened: as §2
# ragweed [17] = assay: Test C postemergence; format: in vivo, Ambrosia artemisiifolia; settings: 10 days
# Procedure, shortened: as §2
# horseweed = assay: Test C postemergence; format: in vivo, Erigeron canadensis; settings: 10 days
# Procedure, shortened: as §2
# oat, wild [18] = assay: Test C postemergence; format: in vivo, Avena fatua; settings: 10 days
# Procedure, shortened: as §2
# kochia [19] = assay: Test C preemergence; format: in vivo, Bassia scoparia; settings: 0 to 100 scale (0 no effect, 100 complete control); for Plant response rating, Kochia: Preemergence, 500 g ai/ha, visual rating after 10 days; for Kochia plant response rating: Test C, preemergence, 125 g ai/ha
# Procedure, shortened: as §2
# green foxtail [20] = assay: Test C preemergence; format: in vivo, Setaria viridis; settings: 0 to 100 scale (0 no effect, 100 complete control); for Plant response rating, Foxtail, Green: Preemergence, 500 g ai/ha, visual rating after 10 days; for Foxtail, Green plant response rating: Test C, preemergence, 125 g ai/ha
# Procedure, shortened: as §2
# ragweed [21] = assay: Test C preemergence; format: in vivo, Ambrosia artemisiifolia; settings: 0 to 100 scale (0 no effect, 100 complete control); for Plant response rating, Ragweed: Preemergence, 500 g ai/ha, visual rating after 10 days; for Ragweed plant response rating: Test C, preemergence, 125 g ai/ha
# Procedure, shortened: as §2
# blackgrass [22] = assay: Test C postemergence; format: in vivo, Alopecurus myosuroides; settings: 10 days
# Procedure, shortened: as §2
# wheat [23] = assay: Test C preemergence; format: in vivo, Triticum aestivum; settings: 0 to 100 scale (0 no effect, 100 complete control); for Plant response rating, Wheat: Preemergence, 500 g ai/ha, visual rating after 10 days; for Wheat plant response rating: Test C, preemergence, 125 g ai/ha
# Procedure, shortened: as §2
# [24] = 125 g ai/ha, postemergence, 0 to 100 scale, 0 no effect, 100 complete control
# [25] = Postemergence, 500 g ai/ha, visual 0 to 100 scale (0 no effect, 100 complete control)
compound,measurement,setting,value
"COc1cc(-n2cnc(C(C)C)n2)cc(C(=O)N2C[C@H](C)Oc3c(Cl)cccc32)c1OC [Compound 194, [(2S)-8-chloro-2-methyl-2,3-dihydro-1,4-benzoxazin-4-yl]-[5-(3-isopropyl-1,2,4-triazol-1-yl)-2,3-dimethoxy-phenyl]methanone]","Plant response rating, Barnyardgrass (Flood)",barnyardgrass [1],0
same,"Plant response rating, Ryegrass, Italian","ryegrass, Italian [2]",90
same,"Ryegrass, Italian plant response rating","ryegrass, Italian [2]",70
same,"Plant response rating, Wheat",wheat [3]; [24],20
same,"Plant response rating, Wheat",wheat [3]; [25],20
same,"Plant response rating, Foxtail, Green",green foxtail [4]; [24],10
same,"Plant response rating, Foxtail, Green",green foxtail [4]; [25],50
same,"Plant response rating, Blackgrass",blackgrass [5],80
same,Blackgrass plant response rating,blackgrass [5],20
same,"Plant response rating, Barnyardgrass",barnyardgrass [6],70
same,Barnyardgrass plant response rating,barnyardgrass [6],10
same,"Plant response rating, Corn",corn [7],30
same,Corn plant response rating,corn [7],0
same,"Plant response rating, Sedge, Umbrella (Flood)","sedge, umbrella",0
same,"Plant response rating, Barnyardgrass",barnyardgrass [8]; [24],10
same,"Plant response rating, Barnyardgrass",barnyardgrass [8]; [25],30
same,"Plant response rating, Rice (Flood)",rice,0
same,"Plant response rating, Pigweed, Palmer","pigweed, palmer [9]; [24]",0
same,"Plant response rating, Pigweed, Palmer","pigweed, palmer [9]; [25]",20
same,"Plant response rating, Kochia",kochia [10]; [24],10
same,"Plant response rating, Kochia",kochia [10]; [25],80
same,"Plant response rating, Ryegrass, Italian","ryegrass, Italian [11]; [24]",30
same,"Plant response rating, Ryegrass, Italian","ryegrass, Italian [11]; [25]",70
same,"Plant response rating, Soybean",soybean [12],10
same,Soybean plant response rating,soybean [12],10
same,"Plant response rating, Ducksalad (Flood)",ducksalad,0
same,"Plant response rating, Pigweed, Palmer","pigweed, palmer [13]",30
same,"Pigweed, Palmer plant response rating","pigweed, palmer [13]",20
same,"Plant response rating, Soybean",soybean [14]; [24],90
same,"Plant response rating, Soybean",soybean [14]; [25],90
same,"Corn plant response rating (crop injury, 0 = no effect, 100 = complete kill) at 125 g/ha","corn [15]; Zea mays, post-emergence, 240 h, 125 g ai/ha, postemergence, 0 to 100 scale (0 no effect, 100 complete control)",10%
same,"Corn plant response rating (crop injury, 0 = no effect, 100 = complete kill) at 500 g/ha","corn [15]; Zea mays, post-emergence, 240 h, Postemergence, 500 g ai/ha, visual 0 to 100 scale (0 no effect, 100 complete control)",20%
same,"Plant response rating, Oat, Wild","oat, wild [16]",90
same,"Oat, Wild plant response rating","oat, wild [16]",20
same,"Plant response rating, Ragweed",ragweed [17]; [24],0
same,"Plant response rating, Ragweed",ragweed [17]; [25],50
same,"Plant response rating, Horseweed",horseweed; [24],0
same,"Plant response rating, Horseweed",horseweed; [25],0
same,"Plant response rating, Oat, Wild","oat, wild [18]; [24]",0
same,"Plant response rating, Oat, Wild","oat, wild [18]; [25]",20
same,"Plant response rating, Kochia",kochia [19],0
same,Kochia plant response rating,kochia [19],0
same,"Plant response rating, Foxtail, Green",green foxtail [20],100
same,"Foxtail, Green plant response rating",green foxtail [20],70
same,"Plant response rating, Ragweed",ragweed [21],20
same,Ragweed plant response rating,ragweed [21],20
same,pest or weed control at 125 g/ha,"blackgrass [22]; Alopecurus myosuroides, post-emergence, 240 h, 125 g ai/ha, postemergence, 0 to 100 scale (0 no effect, 100 complete control), read-out: Plant response rating, Blackgrass",0%
same,pest or weed control at 500 g/ha,"blackgrass [22]; Alopecurus myosuroides, post-emergence, 240 h, Postemergence, 500 g ai/ha, visual 0 to 100 scale (0 no effect, 100 complete control), read-out: Plant response rating, Blackgrass",30%
same,"Plant response rating, Wheat",wheat [23],50
same,Wheat plant response rating,wheat [23],0
COc1cc(C(=O)N2C[C@H](C)Oc3c(Cl)cccc32)cc(-n2cnc(C(C)C)n2)c1 [Compound 212],"Plant response rating, Barnyardgrass (Flood)",barnyardgrass [1],25
same,"Plant response rating, Ryegrass, Italian","ryegrass, Italian [2]",100
same,"Ryegrass, Italian plant response rating","ryegrass, Italian [2]",90
same,"Plant response rating, Wheat",wheat [3]; [24],20
same,"Plant response rating, Wheat",wheat [3]; [25],80
same,"Plant response rating, Foxtail, Green",green foxtail [4]; [24],80
same,"Plant response rating, Foxtail, Green",green foxtail [4]; [25],90
same,"Plant response rating, Blackgrass",blackgrass [5],90
same,Blackgrass plant response rating,blackgrass [5],60
same,"Plant response rating, Barnyardgrass",barnyardgrass [6],100
same,Barnyardgrass plant response rating,barnyardgrass [6],80
same,"Plant response rating, Corn",corn [7],70
same,Corn plant response rating,corn [7],20
same,"Plant response rating, Sedge, Umbrella (Flood)","sedge, umbrella",98
same,"Plant response rating, Barnyardgrass",barnyardgrass [8]; [24],30
same,"Plant response rating, Barnyardgrass",barnyardgrass [8]; [25],50
same,"Plant response rating, Rice (Flood)",rice,40
same,"Plant response rating, Pigweed, Palmer","pigweed, palmer [9]; [24]",90
same,"Plant response rating, Pigweed, Palmer","pigweed, palmer [9]; [25]",90
same,"Plant response rating, Kochia",kochia [10]; [24],80
same,"Plant response rating, Kochia",kochia [10]; [25],90
same,"Plant response rating, Ryegrass, Italian","ryegrass, Italian [11]; [24]",50
same,"Plant response rating, Ryegrass, Italian","ryegrass, Italian [11]; [25]",70
same,"Plant response rating, Soybean",soybean [12],100
same,Soybean plant response rating,soybean [12],90
same,"Plant response rating, Ducksalad (Flood)",ducksalad,95
same,"Plant response rating, Pigweed, Palmer","pigweed, palmer [13]",100
same,"Pigweed, Palmer plant response rating","pigweed, palmer [13]",100
same,"Plant response rating, Soybean",soybean [14]; [24],100
same,"Plant response rating, Soybean",soybean [14]; [25],100
same,"Plant response rating, Corn",corn [15]; [24],20
same,"Plant response rating, Corn",corn [15]; [25],90
same,"Plant response rating, Oat, Wild","oat, wild [16]",90
same,"Oat, Wild plant response rating","oat, wild [16]",70
same,"Plant response rating, Ragweed",ragweed [17]; [24],20
same,"Plant response rating, Ragweed",ragweed [17]; [25],70
same,"Plant response rating, Horseweed",horseweed; [24],0
same,"Plant response rating, Horseweed",horseweed; [25],50
same,"Plant response rating, Oat, Wild","oat, wild [18]; [24]",40
same,"Plant response rating, Oat, Wild","oat, wild [18]; [25]",80
same,"Plant response rating, Kochia",kochia [19],90
same,Kochia plant response rating,kochia [19],90
same,"Plant response rating, Foxtail, Green",green foxtail [20],100
same,"Foxtail, Green plant response rating",green foxtail [20],100
same,"Plant response rating, Ragweed",ragweed [21],50
same,Ragweed plant response rating,ragweed [21],0
same,"Plant response rating, Blackgrass",blackgrass [22]; [24],50
same,"Plant response rating, Blackgrass",blackgrass [22]; [25],100
same,"Plant response rating, Wheat",wheat [23],30
same,Wheat plant response rating,wheat [23],40
